Test results reported in patent US20260191825A1, “CONTRACEPTIVE COMPOUNDS AND DOSING FOR THE SAME” (YourChoice Therapeutics, Inc., priority 2024, published 2026).
Entries after “also recorded” stand apart in the source; their conditions may differ. Like-named read-outs stand apart in the source and are kept apart here.

Columns and labels:
mammalian cell = test: Chromosomal aberration assay (in vitro mammalian cell assay); format: cell-based; conditions: highest doses tested
[1] = NHP non-GLP 14-day repeat-dose study, PK at the NOAEL; conditions: male, cynomolgus monkey, in vivo, 10 mg/kg, 10 mg/kg (NOAEL); for AUC(0-t): read-out: AUC0-24
rats = test: Mating trials with rats; format: in vivo, rat; conditions: control 88%
male Cynomolgus macaques = test: NHP repeat dose non-GLP efficacy study (sperm counts, MABEL); format: in vivo, cynomolgus macaque
Experimental: Animals and husbandry. Six (6) sexually mature, non-naïve male Cynomolgus macaques (8-15 years, 6-15 kg) were used. The animals were individually housed in a humidity- and temperature-controlled facility under a 12 h light/12 h dark diurnal cycle with two daily meals and water ad libitum. The animals were provided with cage toys and daily fresh fruits for environmental enrichment. The animals were acclimated for 2 weeks and observed twice daily to assess overall health and behavior. The animal use protocol was approved by WuXi App Tec's IACUC per the Association for Assessment and Accreditation of Laboratory Animal Care (AAALAC) guideline. The conduct of the study followed the Guidance for the Care and Use of Laboratory Animals (NRC 2011, 8th Edition), with a USDA Category C for the pain and distress level. The humane endpoints included: significant body weight drop of 20% within 7 days, severe adverse effort associated with the administration of the test article, pain and distress caused by any of the in-life procedures, and injury sustained during any time of the experiment that could impact the well-being of the animal (all determined by attending veterinarian). All animals were non-naïve and only animals that had normal hematology and serum chemistry parameters, and normal baseline sperm counts were included in the studies. After the end of the study, all animals were returned to the colony. Confounders were not controlled.
Dosing regimens. […] The formulation (Compound A in saline) was prepared freshly each day of dosing. […] Repeat dose administration: Three (3) Cohort 1 animals were dosed at 0.5 mg/kg/day (Day 1-46) followed by 1.5 mg/kg/day (Day 47-51), 2.5 mg/kg/day (Day 52-101) and 5 mg/kg/day (Day 102-108). Three (3) Cohort 2 animals were dosed at 5 mg/kg/day (Day 1-30) followed by 7.5 mg/kg/day (Day 31-37). No control animals were used in the single and repeat dose studies. Since bioavailability was assessed at time point zero in the PK study and sperm parameters were assessed at pre-dose in the efficacy studies, each animal served as its own control.
Semen collection and sperm count/concentration assessment. Semen samples were obtained once per week or once every other week via electroejaculation during the entire repeat dose study periods from all 3 animals per Cohort to assess sperm concentration and count. Samples were left at room temperature for 30 min to allow for liquefication. Liquefied semen was diluted with 3% NaCl solution for manual sperm count assessment using a hemocytometer. All samples were analyzed in triplicates. Sperm concentration per ejaculate was calculated with the following formula: Sperm concentration=Sperm count×104×Dilution factor. No data point was excluded from the analysis.
Testicular biopsy collection and histology. Testicular biopsies (2 per animal; one from the right and one from the left testicle) were taken 24 h after administering the last dose and on the last day of the recovery period from all 3 animals per Cohort to assess morphological changes. Preoperative care of animals consisted of food restriction and general examination. All surgical procedures were conducted using aseptic techniques and comprehensive physiologic monitoring. The animals were anesthetized with Zoletil 50 (5 mg/kg) by intramuscular (i.m.) injection. The scrotum was disinfected with iodine and 75% alcohol, and lidocaine (1%) was administered intradermally at the biopsy needle insertion site. Core biopsies (one per testis) were collected with a 16 G TSK starcut biopsy needle. Immediately after biopsy collection, animals received Meloxicam (0.2 mg/kg) and Ketorolac (10 mg) for pain relief, and Ceftriaxone sodium (0.5 g) as […] (all via i.m. injection). Meloxicam was given once daily for 3 consecutive days, Ketorolac twice daily for 2 days, and Ceftriaxone sodium once daily for 4 days post-collection. […]

male dogs = test: Dog single dose non-GLP study; format: in vivo
[2] = Metabolite identification in pooled hepatocytes (all species); format: in vitro ADME, human, monkey, mouse, rat, rabbit, dog
Source text: Overall, each metabolite was present at less than 10% of the recoverable metabolic profile across all species. The rat produced 6 of the 8 quantified human metabolites and the dog produced 4 of the 8 human metabolites. […] Because the presence of these metabolites was ≤10% of the recoverable metabolic profile, and because all other human metabolites were represented in either the rat or dog, these 2 species were considered relevant species to assess toxicity.

CYP1A2 = CYP1A2 (Homo sapiens, UniProt P05177); test: In vitro CYP inhibition (direct and time-dependent), CYP1A2; format: in vitro ADME
Source text: (§1) However, the likelihood of drug interactions is low since healthy participants who meet eligibility criteria will be enrolled in this Phase 1b/2a clinical trial. An allowance for select concomitant medications may be considered for select participants at the discretion of the investigator and/or sponsor if drug profiles are not anticipated to interact with Compound A. Such medications may include, but will not be limited to paracetamol or ibuprofen as assessed by both the PI and the Sponsor. […] Additional precautions to avoid grapefruit, pomegranates, star fruit, or Seville oranges for 7 days prior to admission, and juices and products containing these fruits for the duration of the study will be taken.

CYP2C19 = CYP2C19 (Homo sapiens, UniProt P33261); test: In vitro CYP inhibition (direct and time-dependent), CYP2C19; format: in vitro ADME
Source text: as §1

CYP3A4/5 = test: In vitro CYP inhibition (direct and time-dependent), CYP3A4/5; format: in vitro ADME; conditions: human
Source text: as §1

rat = test: Rat repeat daily dosing at non-tolerated doses; format: in vivo
Experimental: These doses convert to respective Human Equivalent Doses (HEDs) of ≥1,612.8 mg and ≥444.8 mg fixed dose based on 80 kg body weight. […] Safety laboratory analyses include serum chemistry, hematology, coagulation, and lipid panel.

[3] = test system: mice, rats, dogs and NHPs; test: Research in nonclinical models (mice, rats, dogs and NHPs); format: in vivo, mouse, rat, dog, NHP

CYP1A2, sequence (P05177 whole entry): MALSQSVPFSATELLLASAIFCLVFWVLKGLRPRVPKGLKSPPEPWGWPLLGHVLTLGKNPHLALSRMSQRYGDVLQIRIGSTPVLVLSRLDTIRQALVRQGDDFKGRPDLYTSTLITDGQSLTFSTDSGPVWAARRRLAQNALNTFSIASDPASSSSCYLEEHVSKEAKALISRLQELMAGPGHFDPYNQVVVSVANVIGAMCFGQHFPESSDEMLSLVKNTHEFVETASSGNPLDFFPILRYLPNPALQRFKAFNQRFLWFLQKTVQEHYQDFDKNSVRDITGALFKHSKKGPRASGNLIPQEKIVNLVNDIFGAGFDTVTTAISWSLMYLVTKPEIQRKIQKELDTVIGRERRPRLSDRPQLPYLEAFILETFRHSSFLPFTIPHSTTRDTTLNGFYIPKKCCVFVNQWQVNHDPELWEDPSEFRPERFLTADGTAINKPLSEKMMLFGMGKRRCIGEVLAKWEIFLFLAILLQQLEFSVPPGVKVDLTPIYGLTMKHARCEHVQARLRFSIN
CYP2C19, sequence (P33261 whole entry): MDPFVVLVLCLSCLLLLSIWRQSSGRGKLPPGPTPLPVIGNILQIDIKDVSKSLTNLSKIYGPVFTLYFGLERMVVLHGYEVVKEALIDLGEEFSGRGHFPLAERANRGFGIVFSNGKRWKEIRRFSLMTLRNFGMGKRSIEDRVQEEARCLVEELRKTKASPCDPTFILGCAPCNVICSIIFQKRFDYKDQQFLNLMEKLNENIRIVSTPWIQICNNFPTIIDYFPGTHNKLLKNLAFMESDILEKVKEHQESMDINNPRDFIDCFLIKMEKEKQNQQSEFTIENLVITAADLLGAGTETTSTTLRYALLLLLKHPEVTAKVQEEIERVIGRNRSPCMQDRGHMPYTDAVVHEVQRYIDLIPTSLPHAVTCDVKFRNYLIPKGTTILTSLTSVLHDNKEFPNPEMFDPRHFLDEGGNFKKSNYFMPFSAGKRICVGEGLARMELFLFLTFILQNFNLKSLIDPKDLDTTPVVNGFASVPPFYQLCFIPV

Question: With `Cc1ccc(C2=CC(C)(C)Oc3ccc(-c4ccc(-c5ccc(C(=O)O)cc5)[nH]4)cc32)cc1` [Compound A] as the molecule, how does the “Genotoxicity: chromosomal aberration” value (mammalian cell) read?
Answer: The value was “not genotoxic; also recorded: no genotoxic potential; also recorded: Clean”.

Question: What about the half-life ([1]; Day 1, mean ± SD) of the same molecule?
Answer: The half-life was 7.9 ± 1.7 h.

Question: And the AUC(0-t) ([1]; Day 1, mean)?
Answer: The AUC(0-t) was 147 µg·h/mL.

Question: What about the Cmax ([1]; Day 1, n = 3, mean) of the same molecule?
Answer: Its Cmax is 13000 ng/mL.

Question: And the Cmax ([1]; Day 14, mean)?
Answer: The Cmax was 6530 ng/mL.

Question: And the half-life ([1]; Day 14, mean ± SD)?
Answer: Its half-life is 6.2 ± 0.4 h.

Question: And the AUC(0-t) ([1]; Day 14, mean)?
Answer: Its AUC(0-t) is 69.7 µg·h/mL.

Question: What about the Fertility (rats; 3 mg/kg/day dose group) of the same molecule?
Answer: The Fertility was 13%.

Question: What about the Fertility (rats; 10 mg/kg/day dose group) of the same molecule?
Answer: Its Fertility is 6%.

Question: What about the Fertility (rats; 30 mg/kg/day dose group) of the same molecule?
Answer: The Fertility was 0%.

Question: And the “HED (based on BSA) of MABEL” value (male Cynomolgus macaques; NHP)?
Answer: Its value is 0.8 mg/kg.

Question: And the “HED for 60 kg BW of MABEL” value (male Cynomolgus macaques; NHP)?
Answer: Its value is 48 mg.

Question: And the “HED for 80 kg BW of MABEL” value (male Cynomolgus macaques; NHP)?
Answer: The value was 64 mg.

Question: And the MABEL (male Cynomolgus macaques; NHP, 49-day repeat dose non-GLP)?
Answer: The MABEL was 2.5 mg/kg/day.

Question: And the “Lowest dose with decreases in sperm counts” value (male Cynomolgus macaques; NHP, repeat dose for 7 weeks)?
Answer: The value was 2.5 mg/kg/day.

Question: What about the “Reversibility of antispermatogenic effect” value (male Cynomolgus macaques; NHPs) of the same molecule?
Answer: The value was 1.5-3.5 spermatogenic cycles.

Question: And the “HED of tolerated single dose” value (male dogs; dogs, 500 mg/kg)?
Answer: Its value is 277.8 mg/kg.

Question: What about the “Tolerated single dose (highest dose tested)” value (male dogs; male dogs, non-GLP study) of the same molecule?
Answer: The value was 500 mg/kg.

Question: What about the “Metabolites yielded by biotransformation” value ([2]; 10 μM, pooled hepatocytes) of the same molecule?
Answer: Its value is 10 metabolites.

Question: And the “Human metabolites produced (of the 8)” value ([2]; dog hepatocytes)?
Answer: Its value is 4.

Question: What about the “Quantified human metabolites produced (of the 8)” value ([2]; rat hepatocytes) of the same molecule?
Answer: The value was 6.

Question: What about the IC50 (CYP1A2; CYP1A2) of the same molecule?
Answer: Its IC50 is 30.1 µM.

Question: What about the “Time-dependent inhibition (TDI)” value (CYP1A2; CYP1A2, 0.3 to 100 μM) of the same molecule?
Answer: Its value is “no TDI potential”.

Question: And the IC50 (CYP2C19; CYP2C19)?
Answer: The IC50 was 85.1 µM.

Question: And the “Time-dependent inhibition (TDI)” value (CYP2C19; CYP2C19, 0.3 to 100 μM)?
Answer: Its value is “no TDI potential”.

Question: And the IC50 (CYP3A4/5; CYP3A4/5, midazolam as substrate)?
Answer: Its IC50 is 58.6 µM.

Question: What about the IC50 (CYP3A4/5; CYP3A4/5, testosterone as substrate) of the same molecule?
Answer: Its IC50 is 53.6 µM.

Question: And the “HED of not tolerated dose, fixed dose based on 80 kg body weight” value (rat)?
Answer: The value was ≥ 1,612.8 mg.

Question: What about the “Not tolerated repeat daily dose (death and morbidity)” value (rat) of the same molecule?
Answer: Its value is at least 125 mg/kg/day.

Question: And the “Systems affected at non-tolerated doses” value (rat)?
Answer: The value was “hematopoietic, hepatic, adrenal and lymphoid systems were affected”.

Question: What about the Testosterone levels ([3]; mice, rats, dogs and NHPs) of the same molecule?
Answer: The Testosterone levels was “does not alter testosterone levels”.

Question: What about the Virility ([3]; mice, rats, dogs and NHPs) of the same molecule?
Answer: The Virility was “does not affect virility”.

Question: What about the “Repeat dosing after which impairment of fertility / reduction of sperm counts was shown” value ([3]; nonclinical models) of the same molecule?
Answer: The value was 3-4 weeks.
